Experiments:
Assay in all cases: relative viability (nuclei count vs DMSO), 5 days (fraction); higher = more cells survive
Carfilzomib + Alpelisib = compound: CC(C)C[C@H](NC(=O)[C@H](CCc1ccccc1)NC(=O)CN1CCOCC1)C(=O)N[C@@H](Cc1ccccc1)C(=O)N[C@@H](CC(C)C)C(=O)[C@@]1(C)CO1 [Carfilzomib] + Cc1nc(NC(=O)N2CCC[C@H]2C(N)=O)sc1-c1ccnc(C(C)(C)C(F)(F)F)c1 [Alpelisib] (partner 2 µM)
How it was run: (§1)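 Lung cancer cell lines were seeded in 1536-well plates and dosed by pin tool the next day, with either a single drug or a fixed anchor-drug dose combined with five library-drug doses (not always all listed) spaced in √10 steps. Five days later, one step fixed the cells and stained their nuclei (final 0.05% Triton X-100, 1% formaldehyde, 1 ug/ml Hoechst), and nuclei were counted on 4× images. Relative viability is the nuclei count in treated wells divided by the count in vehicle wells, and each value is the median of duplicate plates.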

Crizotinib + Tozasertib = compound: C[C@@H](Oc1cc(-c2cnn(C3CCNCC3)c2)cnc1N)c1c(Cl)ccc(F)c1Cl [Crizotinib] + Cc1cc(Nc2cc(N3CCN(C)CC3)nc(Sc3ccc(NC(=O)C4CC4)cc3)n2)n[nH]1 [Tozasertib] (partner 0.1 µM)
How it was run: as §1

Crizotinib + Olaparib = compound: C[C@@H](Oc1cc(-c2cnn(C3CCNCC3)c2)cnc1N)c1c(Cl)ccc(F)c1Cl [Crizotinib] + O=C(c1cc(Cc2n[nH]c(=O)c3ccccc23)ccc1F)N1CCN(C(=O)C2CC2)CC1 [Olaparib] (partner 8 µM)
How it was run: as §1

Olaparib + Crizotinib = compound: O=C(c1cc(Cc2n[nH]c(=O)c3ccccc23)ccc1F)N1CCN(C(=O)C2CC2)CC1 [Olaparib] + C[C@@H](Oc1cc(-c2cnn(C3CCNCC3)c2)cnc1N)c1c(Cl)ccc(F)c1Cl [Crizotinib] (partner 1 µM)
How it was run: as §1

NCI-H358
relative viability (Carfilzomib + Alpelisib; first compound 0.001 µM): 1.21
relative viability (Carfilzomib + Alpelisib; first compound 0.003162 µM): 1.19
relative viability (Carfilzomib + Alpelisib; first compound 0.01 µM): 0.85
relative viability (Carfilzomib + Alpelisib; first compound 0.03162 µM): 0.153
relative viability (Carfilzomib + Alpelisib; first compound 0.1 µM): 0.13
relative viability (Crizotinib + Tozasertib; first compound 0.01 µM): 0.0979
relative viability (Crizotinib + Tozasertib; first compound 0.03162 µM): 0.105
relative viability (Crizotinib + Tozasertib; first compound 0.1 µM): 0.118
relative viability (Crizotinib + Tozasertib; first compound 0.3162 µM): 0.0922
relative viability (Crizotinib + Tozasertib; first compound 1 µM): 0.0946
relative viability (Crizotinib + Olaparib; first compound 0.01 µM): 0.634
relative viability (Crizotinib + Olaparib; first compound 0.03162 µM): 0.599
relative viability (Crizotinib + Olaparib; first compound 0.1 µM): 0.54
relative viability (Crizotinib + Olaparib; first compound 0.3162 µM): 0.561
relative viability (Crizotinib + Olaparib; first compound 1 µM): 0.582
relative viability (Olaparib + Crizotinib; first compound 0.08 µM): 0.606
relative viability (Olaparib + Crizotinib; first compound 0.253 µM): 0.541
relative viability (Olaparib + Crizotinib; first compound 2.53 µM): 0.651
relative viability (Olaparib + Crizotinib; first compound 8 µM): 0.518

ABC-1
relative viability (Carfilzomib + Alpelisib; first compound 0.001 µM): 1.16
relative viability (Carfilzomib + Alpelisib; first compound 0.003162 µM): 1.09
relative viability (Carfilzomib + Alpelisib; first compound 0.01 µM): 0.636
relative viability (Carfilzomib + Alpelisib; first compound 0.03162 µM): 0.246
relative viability (Carfilzomib + Alpelisib; first compound 0.1 µM): 0.267
relative viability (Crizotinib + Tozasertib; first compound 0.03162 µM): 0.196
relative viability (Crizotinib + Tozasertib; first compound 0.1 µM): 0.16
relative viability (Crizotinib + Tozasertib; first compound 0.3162 µM): 0.177
relative viability (Crizotinib + Tozasertib; first compound 1 µM): 0.186
relative viability (Crizotinib + Olaparib; first compound 0.03162 µM): 1.11
relative viability (Crizotinib + Olaparib; first compound 0.1 µM): 0.823
relative viability (Crizotinib + Olaparib; first compound 1 µM): 0.63
relative viability (Olaparib + Crizotinib; first compound 0.08 µM): 1.57
relative viability (Olaparib + Crizotinib; first compound 0.253 µM): 1.04
relative viability (Olaparib + Crizotinib; first compound 2.53 µM): 1.19
relative viability (Olaparib + Crizotinib; first compound 8 µM): 0.961

NCI-H520
relative viability (Carfilzomib + Alpelisib; first compound 0.001 µM): 1.11
relative viability (Carfilzomib + Alpelisib; first compound 0.003162 µM): 0.951
relative viability (Carfilzomib + Alpelisib; first compound 0.01 µM): 0.574
relative viability (Carfilzomib + Alpelisib; first compound 0.03162 µM): 0.138
relative viability (Carfilzomib + Alpelisib; first compound 0.1 µM): 0.137
relative viability (Crizotinib + Tozasertib; first compound 0.01 µM): 0.47
relative viability (Crizotinib + Tozasertib; first compound 0.03162 µM): 0.469
relative viability (Crizotinib + Tozasertib; first compound 0.1 µM): 0.448
relative viability (Crizotinib + Tozasertib; first compound 0.3162 µM): 0.45
relative viability (Crizotinib + Tozasertib; first compound 1 µM): 0.458
relative viability (Crizotinib + Olaparib; first compound 0.01 µM): 0.285
relative viability (Crizotinib + Olaparib; first compound 0.03162 µM): 0.35
relative viability (Crizotinib + Olaparib; first compound 0.1 µM): 0.408
relative viability (Crizotinib + Olaparib; first compound 0.3162 µM): 0.301
relative viability (Crizotinib + Olaparib; first compound 1 µM): 0.349
relative viability (Olaparib + Crizotinib; first compound 0.08 µM): 0.739
relative viability (Olaparib + Crizotinib; first compound 0.253 µM): 0.695
relative viability (Olaparib + Crizotinib; first compound 2.53 µM): 0.781
relative viability (Olaparib + Crizotinib; first compound 8 µM): 0.477

NCI-H838
relative viability (Carfilzomib + Alpelisib; first compound 0.001 µM): 0.979
relative viability (Carfilzomib + Alpelisib; first compound 0.003162 µM): 1.09
relative viability (Carfilzomib + Alpelisib; first compound 0.01 µM): 1.06
relative viability (Carfilzomib + Alpelisib; first compound 0.03162 µM): 0.992
relative viability (Carfilzomib + Alpelisib; first compound 0.1 µM): 0.122
relative viability (Crizotinib + Tozasertib; first compound 0.01 µM): 0.243
relative viability (Crizotinib + Tozasertib; first compound 0.03162 µM): 0.296
relative viability (Crizotinib + Tozasertib; first compound 0.1 µM): 0.246
relative viability (Crizotinib + Tozasertib; first compound 0.3162 µM): 0.266
relative viability (Crizotinib + Tozasertib; first compound 1 µM): 0.269
relative viability (Crizotinib + Olaparib; first compound 0.01 µM): 0.712
relative viability (Crizotinib + Olaparib; first compound 0.03162 µM): 0.763
relative viability (Crizotinib + Olaparib; first compound 0.1 µM): 0.78
relative viability (Crizotinib + Olaparib; first compound 0.3162 µM): 0.712
relative viability (Crizotinib + Olaparib; first compound 1 µM): 0.726
relative viability (Olaparib + Crizotinib; first compound 0.08 µM): 0.882
relative viability (Olaparib + Crizotinib; first compound 0.253 µM): 0.774
relative viability (Olaparib + Crizotinib; first compound 2.53 µM): 0.779
relative viability (Olaparib + Crizotinib; first compound 8 µM): 0.742

NCI-H2126
relative viability (Carfilzomib + Alpelisib; first compound 0.001 µM): 0.683
relative viability (Carfilzomib + Alpelisib; first compound 0.003162 µM): 0.787
relative viability (Carfilzomib + Alpelisib; first compound 0.01 µM): 0.792
relative viability (Carfilzomib + Alpelisib; first compound 0.03162 µM): 0.774
relative viability (Carfilzomib + Alpelisib; first compound 0.1 µM): 0.563
relative viability (Crizotinib + Tozasertib; first compound 0.01 µM): 0.721
relative viability (Crizotinib + Tozasertib; first compound 0.03162 µM): 0.813
relative viability (Crizotinib + Tozasertib; first compound 0.1 µM): 0.819
relative viability (Crizotinib + Tozasertib; first compound 0.3162 µM): 0.8
relative viability (Crizotinib + Tozasertib; first compound 1 µM): 0.808
relative viability (Crizotinib + Olaparib; first compound 0.01 µM): 0.81
relative viability (Crizotinib + Olaparib; first compound 0.03162 µM): 0.936
relative viability (Crizotinib + Olaparib; first compound 0.1 µM): 0.952
relative viability (Crizotinib + Olaparib; first compound 0.3162 µM): 0.897
relative viability (Crizotinib + Olaparib; first compound 1 µM): 0.907
relative viability (Olaparib + Crizotinib; first compound 0.08 µM): 1.12
relative viability (Olaparib + Crizotinib; first compound 0.253 µM): 0.967
relative viability (Olaparib + Crizotinib; first compound 2.53 µM): 0.957
relative viability (Olaparib + Crizotinib; first compound 8 µM): 0.969

HCC-366
relative viability (Carfilzomib + Alpelisib; first compound 0.001 µM): 0.402
relative viability (Carfilzomib + Alpelisib; first compound 0.003162 µM): 0.518
relative viability (Carfilzomib + Alpelisib; first compound 0.01 µM): 0.413
relative viability (Carfilzomib + Alpelisib; first compound 0.03162 µM): 0.285
relative viability (Carfilzomib + Alpelisib; first compound 0.1 µM): 0.0174
relative viability (Crizotinib + Tozasertib; first compound 0.01 µM): 0.143
relative viability (Crizotinib + Tozasertib; first compound 0.03162 µM): 0.0981
relative viability (Crizotinib + Tozasertib; first compound 0.1 µM): 0.106
relative viability (Crizotinib + Tozasertib; first compound 1 µM): 0.136
relative viability (Crizotinib + Olaparib; first compound 0.01 µM): 0.357
relative viability (Crizotinib + Olaparib; first compound 0.03162 µM): 0.357
relative viability (Crizotinib + Olaparib; first compound 0.1 µM): 0.329
relative viability (Crizotinib + Olaparib; first compound 1 µM): 0.356
relative viability (Olaparib + Crizotinib; first compound 0.08 µM): 0.517
relative viability (Olaparib + Crizotinib; first compound 0.253 µM): 0.473
relative viability (Olaparib + Crizotinib; first compound 2.53 µM): 0.238
relative viability (Olaparib + Crizotinib; first compound 8 µM): 0.145

NCI-H2085
relative viability (Carfilzomib + Alpelisib; first compound 0.001 µM): 0.978
relative viability (Carfilzomib + Alpelisib; first compound 0.003162 µM): 1.1
relative viability (Carfilzomib + Alpelisib; first compound 0.01 µM): 0.908
relative viability (Carfilzomib + Alpelisib; first compound 0.03162 µM): 0.43
relative viability (Carfilzomib + Alpelisib; first compound 0.1 µM): 0.282
relative viability (Crizotinib + Tozasertib; first compound 0.01 µM): 0.763
relative viability (Crizotinib + Tozasertib; first compound 0.03162 µM): 0.801
relative viability (Crizotinib + Tozasertib; first compound 0.1 µM): 0.775
relative viability (Crizotinib + Tozasertib; first compound 1 µM): 0.884
relative viability (Crizotinib + Olaparib; first compound 0.01 µM): 0.737
relative viability (Crizotinib + Olaparib; first compound 0.03162 µM): 0.74
relative viability (Crizotinib + Olaparib; first compound 0.1 µM): 0.755
relative viability (Crizotinib + Olaparib; first compound 0.3162 µM): 0.752
relative viability (Crizotinib + Olaparib; first compound 1 µM): 0.823
relative viability (Olaparib + Crizotinib; first compound 0.08 µM): 0.911
relative viability (Olaparib + Crizotinib; first compound 0.253 µM): 0.657
relative viability (Olaparib + Crizotinib; first compound 2.53 µM): 0.74
relative viability (Olaparib + Crizotinib; first compound 8 µM): 0.77

LU99A
relative viability (Carfilzomib + Alpelisib; first compound 0.001 µM): 0.503
relative viability (Carfilzomib + Alpelisib; first compound 0.003162 µM): 0.543
relative viability (Carfilzomib + Alpelisib; first compound 0.01 µM): 0.49
relative viability (Carfilzomib + Alpelisib; first compound 0.03162 µM): 0.198
relative viability (Carfilzomib + Alpelisib; first compound 0.1 µM): 0.148
relative viability (Crizotinib + Tozasertib; first compound 0.01 µM): 0.231
relative viability (Crizotinib + Tozasertib; first compound 0.03162 µM): 0.27
relative viability (Crizotinib + Tozasertib; first compound 0.1 µM): 0.256
relative viability (Crizotinib + Tozasertib; first compound 0.3162 µM): 0.222
relative viability (Crizotinib + Tozasertib; first compound 1 µM): 0.241
relative viability (Crizotinib + Olaparib; first compound 0.01 µM): 0.246
relative viability (Crizotinib + Olaparib; first compound 0.03162 µM): 0.258
relative viability (Crizotinib + Olaparib; first compound 0.1 µM): 0.272
relative viability (Crizotinib + Olaparib; first compound 0.3162 µM): 0.236
relative viability (Crizotinib + Olaparib; first compound 1 µM): 0.266
relative viability (Olaparib + Crizotinib; first compound 0.08 µM): 0.522
relative viability (Olaparib + Crizotinib; first compound 0.253 µM): 0.495
relative viability (Olaparib + Crizotinib; first compound 2.53 µM): 0.427
relative viability (Olaparib + Crizotinib; first compound 8 µM): 0.42

NCI-H1944
relative viability (Carfilzomib + Alpelisib; first compound 0.001 µM): 0.776
relative viability (Carfilzomib + Alpelisib; first compound 0.003162 µM): 0.877
relative viability (Carfilzomib + Alpelisib; first compound 0.01 µM): 0.776
relative viability (Carfilzomib + Alpelisib; first compound 0.03162 µM): 0.938
relative viability (Carfilzomib + Alpelisib; first compound 0.1 µM): 0.304
relative viability (Crizotinib + Tozasertib; first compound 0.01 µM): 0.254
relative viability (Crizotinib + Tozasertib; first compound 0.03162 µM): 0.248
relative viability (Crizotinib + Tozasertib; first compound 0.1 µM): 0.252
relative viability (Crizotinib + Tozasertib; first compound 0.3162 µM): 0.247
relative viability (Crizotinib + Tozasertib; first compound 1 µM): 0.254
relative viability (Crizotinib + Olaparib; first compound 0.01 µM): 0.414
relative viability (Crizotinib + Olaparib; first compound 0.03162 µM): 0.423
relative viability (Crizotinib + Olaparib; first compound 0.1 µM): 0.378
relative viability (Crizotinib + Olaparib; first compound 0.3162 µM): 0.424
relative viability (Crizotinib + Olaparib; first compound 1 µM): 0.461
relative viability (Olaparib + Crizotinib; first compound 0.08 µM): 1.06
relative viability (Olaparib + Crizotinib; first compound 0.253 µM): 0.926
relative viability (Olaparib + Crizotinib; first compound 2.53 µM): 0.814
relative viability (Olaparib + Crizotinib; first compound 8 µM): 0.676
